The values that follow come from patent US20050163855A1, “Method of preparing low-crystallinity oltipraz or amorphous oltipraz” (CJ CORPORATION, priority 2004, published 2005).

Converted amounts (≈) assume the structure as drawn.

For series [1] the following is noted: cited from earlier work.
Series [2] can be described thus: physchem.

Broadly, the solubility is the concentration that dissolves in the medium under given conditions. Take `Cc1c(-c2cnccn2)ssc1=S` [oltipraz]: the water solubility in series [1] was at most 0.001 mg/mL. For the same compound, the solubility in series [2] (Cremophor EL, organic solvent or mixture) came out at 9.44 mg/mL (≈ 41.7 mM); in series [2] (Cremophor RH40, organic solvent or mixture), 10.7 mg/mL (≈ 47.2 mM); in series [2] (Dimethylisosorbide, organic solvent or mixture), 17.2 mg/mL (≈ 76.2 mM); in series [2] (Labrasol, organic solvent or mixture), 12.6 mg/mL (≈ 55.6 mM); in series [2] (N,N-dimethylformamide, organic solvent or mixture), 31.3 mg/mL (≈ 138 mM); in series [2] (N-methypyrrolidone, organic solvent or mixture), 13.7 mg/mL (≈ 60.3 mM). The solubility in series [2] (Polymethylene glycol 200, organic solvent or mixture) worked out at 7.99 mg/mL (≈ 35.3 mM); in series [2] (Polymethylene glycol 400, organic solvent or mixture), 10.5 mg/mL (≈ 46.5 mM); in series [2] (Polypropylene glycol, organic solvent or mixture), 0.57 mg/mL (≈ 2.52 mM); in series [2] (Tetraglycol, organic solvent or mixture) it was 13.6 mg/mL (≈ 59.9 mM); in series [2] (Transcutol, organic solvent or mixture) it was 10.3 mg/mL (≈ 45.7 mM); in series [2] (acetone, organic solvent or mixture), 4.05 mg/mL (≈ 17.9 mM). Further, the solubility in series [2] (acetonitrile, organic solvent or mixture) turned out to be 2.73 mg/mL (≈ 12.1 mM); in series [2] (chloroform, organic solvent or mixture), 28.6 mg/mL (≈ 126 mM); in series [2] (dimethyl sulfoxide, organic solvent or mixture) it was 29.1 mg/mL (≈ 129 mM); in series [2] (ethanol, organic solvent or mixture) it was 0.67 mg/mL (≈ 2.96 mM); in series [2] (methanol, organic solvent or mixture) it was 0.5 mg/mL (≈ 2.21 mM); in series [2] (methylene chloride, organic solvent or mixture), 7.6 mg/mL (≈ 33.6 mM).
